The text below walks through data of patent publication US20080312164A1 (priority 2006, published 2008).

The test system of assay [1] is SF-268 cells. As to the kind of experiment: Cell Titer-Glo cytotoxicity assay, SF-268. The class given is cell-based. The conditions noted are these: Homo sapiens. From the text: (§1) Five serial 1:2 dilutions were made with anhydrous DMSO at 100× the final concentration used in the assay.
For assay [2], the system named is Hep3B cells. The assay is described as follows: Cell Titer-Glo cytotoxicity assay, Hep3B. The class given is cell-based. The settings on record: Homo sapiens, 72 h.
Source text: as §1

Assay [3] deals with NCI-H460 cells. The assay is described as follows: Cell Titer-Glo cytotoxicity assay, NCI-H460. It counts as cell-based, human. The settings on record: Homo sapiens.
Source text: as §1

The subject of assay [4] is NmuMG mouse mammary normal epithelial cells. As to the kind of experiment: Cell Titer-Glo cytotoxicity assay, NmuMG. The class given is cell-based. The settings on record: Mus musculus, Epithelial cell, 72 h.
Source text: as §1

The test system of assay [5] is HCT-116 cells. The assay is described as follows: Calcein AM cytotoxicity assay, HCT-116. It counts as cell-based. The settings on record: Homo sapiens.
Source text: as §1

For assay [6], the system named is NCI-H460 cells. As to the kind of experiment: Calcein AM cytotoxicity assay, NCI-H460. It counts as cell-based. The settings on record: Homo sapiens.
Source text: as §1

The test system of assay [7] is SK-OV-3 cells. As to the kind of experiment: Calcein AM cytotoxicity assay, SK-OV-3. It counts as cell-based. The settings on record: Homo sapiens.
Source text: as §1

For assay [8], the system named is Du145 cells. As to the kind of experiment: Calcein AM cytotoxicity assay, Du145. The settings on record: Homo sapiens. It counts as cell-based.
Source text: as §1

Assay [9] has as its system NCI/ADR RES cells. As to the kind of experiment: Calcein AM cytotoxicity assay, NCI/ADR-RES. The class given is cell-based. The settings on record: Homo sapiens, 72 h.
Source text: as §1

Assay [10] concerns SK-OV-3 cells. As to the kind of experiment: Cell Titer-Glo cytotoxicity assay, SK-OV-3. The conditions noted are these: Homo sapiens. The class given is cell-based.
Source text: as §1

Assay [11] deals with HCT-116 cells. As to the kind of experiment: Cell Titer-Glo cytotoxicity assay, HCT-116. The class given is cell-based. The conditions noted are these: Homo sapiens.
Source text: as §1

The subject of a further assay is human cancer cell lines. The assay is described as follows: Cytotoxicity across the panel of human cancer cell lines (average, high-throughput assays). The settings on record: for IC50: read-out: Cancerous Average IC50 / Average IC50 in Cancer Cell Lines. The class given is cell-based.
Source text: as §1

The test system of another assay is HT-29 cells. The assay is described as follows: MTT cytotoxicity assay, HT-29. It counts as cell-based. The conditions noted are these: Homo sapiens.
The subject of assay [12] is NCI/ADR RES cells. As to the kind of experiment: Cell Titer-Glo cytotoxicity assay, NCI/ADR-RES. The class given is cell-based, human. The settings on record: Homo sapiens, NCI/ADR-RES, 72 h.
Source text: as §1

The subject of assay [13] is Du145 cells. As to the kind of experiment: Cell Titer-Glo cytotoxicity assay, Du145. The class given is cell-based. The settings on record: Homo sapiens.
Source text: as §1

The test system of assay [14] is SF-268 cells. The assay is described as follows: Calcein AM cytotoxicity assay, SF-268. The class given is cell-based. The settings on record: Homo sapiens.
Source text: as §1

The subject of assay [15] is NmuMG mouse mammary normal epithelial cells. The assay is described as follows: Calcein AM cytotoxicity assay, NmuMG. The class given is cell-based. The conditions noted are these: Epithelial cell, 72 h.
Source text: as §1

Assay [16] deals with MCF7 cells. The assay is described as follows: Calcein AM cytotoxicity assay, MCF7. It counts as cell-based. The conditions noted are these: Homo sapiens.
Source text: as §1

For assay [17], the system named is Hep3B cells. The assay is described as follows: Calcein AM cytotoxicity assay, Hep3B. The class given is cell-based. The conditions noted are these: Homo sapiens, 72 h.
Source text: as §1

The subject of assay [18] is MCF7 cells. The assay is described as follows: Cell Titer-Glo cytotoxicity assay, MCF7. The class given is cell-based, human. The conditions noted are these: Homo sapiens.
Source text: as §1

The mark [19] stands for this setting: SF-268, Cell Titer-Glo, 72 h, read-out: IC50.
[20] abbreviates: NCI-H460, Cell Titer-Glo, 72 h, read-out: IC50.
Setting [21] is: NmuMG, Cell Titer-Glo, read-out: IC50.
Where [22] appears, read: HCT-116, Calcein AM, 72 h, read-out: IC50.
[23] abbreviates: NCI-H460, Calcein AM, 72 h, read-out: IC50.
The mark [24] stands for this setting: SK-OV-3, Calcein AM, 72 h, read-out: IC50.
The mark [25] stands for this setting: DU-145, Du145, Calcein AM, 72 h, read-out: IC50.
The mark [26] stands for this setting: SK-OV-3, Cell Titer-Glo, 72 h, read-out: IC50.
Setting [27] is: HCT-116, Cell Titer-Glo, 72 h, read-out: IC50.
Where [28] appears, read: average across eight human cancer cell lines, MTT (HT-29) values excluded.
[29] abbreviates: HT-29, MTT, 24 h, read-out: IC50.
Where [30] appears, read: DU-145, Du145, Cell Titer-Glo, 72 h, read-out: IC50.
Setting [31] is: SF-268, Calcein AM, 72 h, read-out: IC50.
The mark [32] stands for this setting: NmuMG, Calcein AM, read-out: IC50.
Setting [33] is: MCF7, Calcein AM, 72 h, read-out: IC50.
The mark [34] stands for this setting: MCF7, Cell Titer-Glo, 72 h, read-out: IC50.

SMILES strings stand for the structures. Read-outs that look alike come from different tables or passages of the source.

As for `C[S+]([O-])CCCCN=C=S` (racemic) [Compound 13, 1-isothiocyanato-4-(methylsulfinyl)butane], the IC50 is 6.22 µM in the assay on SF-268 cells [1] (setting [19]); 2.75 µM in the assay on Hep3B cells [2] (Cell Titer-Glo, read-out: IC50); 10.1 µM in the assay with NCI-H460 cells [3] (setting [20]); 3.2 µM in [4] (setting [21]); 6.13 µM with HCT-116 cells [5] (setting [22]); 13 µM in the assay on NCI-H460 cells [6] (setting [23]). Besides, the IC50 is 5.65 µM in the assay on SK-OV-3 cells [7] (setting [24]); 6.25 µM in the assay with Du145 cells [8] (setting [25]); 13.1 µM in the assay with NCI/ADR RES cells [9] (Calcein AM, read-out: IC50); 9.9 µM in the assay on SK-OV-3 cells [10] (setting [26]); 4.81 µM in the assay with HCT-116 cells [11] (setting [27]); 7.61 µM with human cancer cell lines (setting [28]). For the same compound, the IC50 in the assay with HT-29 cells (setting [29]) was 46.4 µM; with NCI/ADR RES cells [12] (Cell Titer-Glo, read-out: IC50), 16.5 µM; with Du145 cells [13] (setting [30]) it was 8.62 µM; with SF-268 cells [14] (setting [31]), 5.69 µM; in assay [15] (setting [32]), 5.61 µM; in the assay on MCF7 cells [16] (setting [33]), 7.28 µM. Moreover, the results for the IC50 in the assay with Hep3B cells [17] and in the assay on MCF7 cells [18] (setting [34]) were less than 3.13 µM and 8.59 µM, respectively.

With `C[S+]([O-])CCCCN=C=S` (stereo not drawn) [Compound 2, 1-isothiocyanato-4-(methylsulfinyl) butane, reference compound], the IC50 in the assay on SF-268 cells [1] (SF-268, 72 h) was 6.16 µM; in the assay with Hep3B cells [2], 4.48 µM; in the assay on NCI-H460 cells [3] (NCI-H460, 72 h), 5.94 µM; in assay [4], 6.59 µM; with HCT-116 cells [5] (HCT-116, 72 h), 2.94 µM; in the assay on NCI-H460 cells [6] (NCI-H460, 72 h), 8.74 µM. For the same compound, the IC50 in the assay with SK-OV-3 cells [7] (SK-OV-3, 72 h) is 7.6 µM; with Du145 cells [8] (DU-145, 72 h), 5.25 µM; with NCI/ADR RES cells [9] it was 8.89 µM; in the assay with SK-OV-3 cells [10] (SK-OV-3, 72 h), 4.67 µM; in the assay on HCT-116 cells [11] (HCT-116, 72 h), 3.58 µM; in the assay with human cancer cell lines (Homo sapiens) it was 5.26 µM. Moreover, the IC50 in the assay on HT-29 cells (HT-29, 24 h) is 45.2 µM; with NCI/ADR RES cells [12] it was 8.98 µM; in the assay on Du145 cells [13] (DU-145, 72 h), 6.1 µM; in the assay on SF-268 cells [14] (SF-268, 72 h), 11 µM; in [15], 6.86 µM; in the assay with MCF7 cells [16] (MCF7, 72 h), 3.14 µM. In addition, the IC50 in the assay on Hep3B cells [17] is 4.13 µM; in the assay with MCF7 cells [18] (MCF7, 72 h), less than 3.13 µM. In the assay with human cancer cell lines, the “selectivity for cancer cells over NmuMG cells” value came to 1.3 fold.

In the case of `CS(=O)(=O)CCCCN=C=S` [Compound 14, 1-isothiocyanato-4-(methylsulfonyl)butane], the IC50 in the assay on SF-268 cells [1] (setting [19]) was 3.7 µM; in the assay with Hep3B cells [2] (Cell Titer-Glo, read-out: IC50), 4.48 µM; in the assay with NCI-H460 cells [3] (setting [20]) it was 6.87 µM; in assay [4] (setting [21]), 5.32 µM; in the assay on HCT-116 cells [5] (setting [22]), 4.16 µM; in the assay on NCI-H460 cells [6] (setting [23]), 10 µM. Besides, the IC50 is 4.84 µM with SK-OV-3 cells [7] (setting [24]); 5.24 µM with Du145 cells [8] (setting [25]); 9.99 µM in the assay with NCI/ADR RES cells [9] (Calcein AM, read-out: IC50); 6.99 µM in the assay on SK-OV-3 cells [10] (setting [26]); 3.29 µM in the assay on HCT-116 cells [11] (setting [27]); 5.32 µM in the assay with human cancer cell lines (setting [28]). Moreover, the IC50 with HT-29 cells (setting [29]) is 39.1 µM; in the assay with NCI/ADR RES cells [12] (Cell Titer-Glo, read-out: IC50), 11.1 µM; in the assay on Du145 cells [13] (setting [30]), 4 µM; in the assay with SF-268 cells [14] (setting [31]) it was 4.72 µM; in assay [15] (setting [32]), 7.9 µM; in the assay with MCF7 cells [16] (setting [33]), 8.36 µM. For the same compound, the IC50 is 3.46 µM with Hep3B cells [17] (Calcein AM, read-out: IC50) and 2.28 µM with MCF7 cells [18] (setting [34]).

As to `CC(C)(C)CN=C=S` [Compound 16, 1-isothiocyanato-2,2-dimethylpropane], the IC50 is greater than 50 µM in the assay with SF-268 cells [1] (setting [19]); greater than 50 µM with Hep3B cells [2] (Cell Titer-Glo, read-out: IC50); 30.3 µM in the assay with NCI-H460 cells [3] (setting [20]); 26.8 µM in assay [4] (setting [21]); greater than 50 µM with HCT-116 cells [5] (setting [22]); greater than 50 µM with NCI-H460 cells [6] (setting [23]). Further, the IC50 in the assay on SK-OV-3 cells [7] (setting [24]) was greater than 50 µM; with Du145 cells [8] (setting [25]), greater than 50 µM; in the assay on NCI/ADR RES cells [9] (Calcein AM, read-out: IC50), greater than 50 µM; with SK-OV-3 cells [10] (setting [26]) it was greater than 50 µM; with HCT-116 cells [11] (setting [27]), 35 µM; in the assay with human cancer cell lines (setting [28]), greater than 50 µM. The IC50 is greater than 50 µM in the assay with HT-29 cells (setting [29]); greater than 50 µM in the assay on NCI/ADR RES cells [12] (Cell Titer-Glo, read-out: IC50); greater than 50 µM in the assay on Du145 cells [13] (setting [30]); greater than 50 µM with SF-268 cells [14] (setting [31]); 49.4 µM in [15] (setting [32]); greater than 50 µM in the assay on MCF7 cells [16] (setting [33]). The IC50 was greater than 50 µM with Hep3B cells [17] (Calcein AM, read-out: IC50) and greater than 50 µM with MCF7 cells [18] (setting [34]).
